Where two headings read alike, the source gives them in different places.
How the values were obtained:
Format in all cases: cell-based
[1] = tested on: SKBr3 and MCF-7 cell lines; assay: Anti-proliferative activity against both breast cancer cell lines (results in words); conditions: SKBr3 and MCF-7, Tables 1-5
Description: (§1) Cells were maintained in a 1:1 mixture of Advanced DMEM/F12 (Gibco) supplemented with non-essential amino acids, L-glutamine (2 mM), streptomycin (500 μg/mL), penicillin (100 units/mL), and 10% FBS. Cells were grown to confluence in a humidified atmosphere (37° C., 5% CO2), seeded (2000/well, 100 μL) in 96-well plates, and allowed to attach overnight. Compound at varying concentrations in DMSO (1% DMSO final concentration) was added, and cells were returned to the incubator for 72 h. At 72 h, the number of viable cells was determined using an MTS/PMS cell proliferation kit (Promega) per the manufacturer's instructions. Cells incubated in 1% DMSO were used at 100% proliferation, and values were adjusted accordingly. IC50 values were calculated from separate experiments performed in triplicate using GraphPad Prism.
The anti-proliferative activity of these compounds is evaluated against two breast cancer cell lines, SKBr3 (estrogen receptor negative, Her2 over-expressing breast cancer cells) and MCF-7 (estrogen receptor positive breast cancer cells).

[2] = tested on: SKBr3 (estrogen receptor negative, Her2 over-expressing breast cancer cells); assay: Anti-proliferation assay (MTS/PMS, 72 h), SKBr3; conditions: Homo sapiens, SK-BR-3
[3] = tested on: MCF-7 (estrogen receptor positive breast cancer cells); assay: Anti-proliferation assay (MTS/PMS, 72 h), MCF-7; conditions: Homo sapiens, MCF7
MDAMB231 = assay: Anti-proliferation assay, MDAMB231; conditions: Homo sapiens, MDA-MB-231; Table 6, substituted phenyl ureas; Tri-Neg
Description: as §1

DRO81-1 = assay: Anti-proliferation assay, DRO81-1; conditions: Table 6, substituted phenyl ureas; Thyroid
Description: as §1

HMLE = assay: Anti-proliferation assay, HMLE (normal); conditions: HMLE, Table 6, substituted phenyl ureas
Description: as §1

PC-3 = assay: Anti-proliferation assay, PC-3; conditions: Homo sapiens, PC-3; Table 6, substituted phenyl ureas; Prostate Cancer
Description: as §1

HCT-116 = assay: Anti-proliferation assay, HCT-116; conditions: Homo sapiens, HCT-116; Table 6, substituted phenyl ureas
Description: as §1

MDA1986 = assay: Anti-proliferation assay, MDA1986; conditions: MDA1986; Table 6, substituted phenyl ureas; HSNCC
Description: as §1

JMAR = assay: Anti-proliferation assay, JMAR; conditions: JMAR; Table 6, substituted phenyl ureas; HSNCC
Description: as §1

MRC5 = assay: Anti-proliferation assay, MRC5 (normal); conditions: Homo sapiens, MRC5, Table 6, substituted phenyl ureas
Description: as §1

A-549 = assay: Anti-proliferation assay, A-549; conditions: Homo sapiens, A549; Table 6, substituted phenyl ureas
Description: as §1

[4] = Table 1, modified benzamide coumarin derivatives, read-out: SKBr3
[5] = Table 1, modified benzamide coumarin derivatives, read-out: MCF-7
[6] = Table 2, modified benzamide and biphenylamide derivatives (in μM), read-out: SKBr3
[7] = Table 2, modified benzamide and biphenylamide derivatives (in μM), read-out: MCF-7
[8] = Table 6, substituted phenyl ureas, Breast Cancer, read-out: IC50 SKBr3
[9] = Table 6, substituted phenyl ureas, Breast Cancer, read-out: IC50 MCF-3

Cc1c(OC2CCN(C)CC2)ccc2cc(NC(=O)c3ccc(O)c(CCC(C)C)c3)c(=O)oc12 [Compound 19, 4-hydroxy-3-isopentyl-N-(8-methyl-7-(1-methylpiperidin-4-yloxy)-2-oxo-2H-chromen-3-yl)benzamide]
anti-proliferative activity (in words) [1]: no effect on inhibitory activity
IC50 [2, 4]: 0.6 ± 0.01 µM
IC50 [3, 5]: 1.25 ± 0.39 µM

Cc1c(OC2CCN(C)CC2)ccc2cc(NC(=O)c3ccc4c(c3)CCC(C)(C)O4)c(=O)oc12 [Compound 20, 2,2-dimethyl-N-(8-methyl-7-(1-methylpiperidin-4-yloxy)-2-oxo-2H-chromen-3-yl)chroman-6-carboxamide]
anti-proliferative activity (in words) [1]: decreased anti-proliferative activities
IC50 [2, 4]: 3.46 ± 0.02 µM
IC50 [3, 5]: 5.01 ± 0.01 µM

C=CCc1cc(C(=O)Nc2cc3ccc(OC4CCN(C)CC4)c(C)c3oc2=O)ccc1OC(C)=O [Compound 21a, 2-allyl-4-((8-methyl-7-((1-methylpiperidin-4-yl)oxy)-2-oxo-2H-chromen-3-yl)carbamoyl)phenyl acetate]
anti-proliferative activity (in words) [1]: decreased anti-proliferative activities
IC50 [2, 4]: 2.26 ± 0.12 µM
IC50 [3, 5]: 2 ± 0.18 µM

CC(=O)Oc1ccc(C(=O)Nc2cc3ccc(OC4CCN(C)CC4)c(C)c3oc2=O)cc1 [Compound 21b, 4-(8-methyl-7-(1-methylpiperidin-4-yloxy)-2-oxo-2H-chromen-3-ylcarbamoyl)phenyl acetate]
anti-proliferative activity (in words) [1]: decreased anti-proliferative activities
IC50 [2, 4]: 1.67 ± 0.2 µM
IC50 [3, 5]: 1.62 ± 0.04 µM

CC(C)=CCc1cccc(C(=O)Nc2cc3ccc(OC4CCN(C)CC4)c(C)c3oc2=O)c1 [Compound 21c, N-(8-methyl-7-((1-methylpiperidin-4-yl)oxy)-2-oxo-2H-chromen-3-yl)-3-(3-methylbut-2-en-1-yl)benzamide]
anti-proliferative activity (in words) [1]: two-fold lower activity
IC50 [2, 4]: 1.68 ± 0.12 µM
IC50 [3, 5]: 2.1 ± 0.08 µM

Cc1c(OC2CCN(C)CC2)ccc2cc(NC(=O)c3ccccc3)c(=O)oc12 [Compound 21d, N-(8-methyl-7-(1-methylpiperidin-4-yloxy)-2-oxo-2H-chromen-3-yl)benzamide]
anti-proliferative activity (in words) [1]: significantly decreased activity
IC50 [2, 4]: 11.5 ± 2 µM
IC50 ([2]; amide versus urea linkage, read-out: IC50 for SKBr3): 11.5 µM
IC50 [3, 5]: 11.7 ± 1 µM
IC50 ([3]; amide versus urea linkage, read-out: IC50 for MCF-3): 11.7 µM

CC(=O)Oc1ccc(C(=O)Nc2cc3ccc(OC4CCN(C)CC4)c(C)c3oc2=O)cc1Cl [Compound 21e, 2-chloro-4-(8-methyl-7-(1-methylpiperidin-4-yloxy)-2-oxo-2H-chromen-3-ylcarbamoyl)phenyl acetate]
anti-proliferative activity (in words) [1]: diminished activity
IC50 [2, 4]: 3.5 ± 0.01 µM
IC50 [3, 5]: 1.61 ± 0.16 µM

C=CCc1cc(C(=O)Nc2cc3ccc(OC4CCN(C)CC4)c(C)c3oc2=O)ccc1O [Compound 22a, 3-allyl-4-hydroxy-N-(8-methyl-7-((1-methylpiperidin-4-yl)oxy)-2-oxo-2H-chromen-3-yl)benzamide]
anti-proliferative activity (in words) [1]: decreased anti-proliferative activities
IC50 [2, 4]: 2.43 ± 0.04 µM
IC50 [3, 5]: 2.17 ± 0.11 µM

Cc1c(OC2CCN(C)CC2)ccc2cc(NC(=O)c3ccc(O)cc3)c(=O)oc12 [Compound 22b, 4-hydroxy-N-(8-methyl-7-(1-methylpiperidin-4-yloxy)-2-oxo-2H-chromen-3-yl)benzamide]
anti-proliferative activity (in words) [1]: decreased anti-proliferative activities
IC50 [2, 4]: 0.84 ± 0.18 µM
IC50 [3, 5]: 1.43 ± 0.08 µM

Cc1c(OC2CCN(C)CC2)ccc2cc(NC(=O)c3ccc(O)c(Cl)c3)c(=O)oc12 [Compound 22e, 3-chloro-4-hydroxy-N-(8-methyl-7-(1-methylpiperidin-4-yloxy)-2-oxo-2H-chromen-3-yl)benzamide]
anti-proliferative activity (in words) [1]: diminished activity
IC50 [2, 4]: 2.3 ± 0.57 µM
IC50 [3, 5]: 1.48 ± 0.14 µM

COc1cccc(-c2cc(C(=O)Nc3cc4ccc(OC5CCN(C)CC5)c(C)c4oc3=O)ccc2OC(C)=O)c1 [Compound 32a, 3′-methoxy-5-(8-methyl-7-(1-methylpiperidin-4-yloxy)-2-oxo-2H-chromen-3-ylcarbamoyl)biphenyl-2-yl acetate]
anti-proliferative activity (in words) [1]: maintains inhibitory activity
IC50 [2, 6]: 0.92 ± 0.06 µM
IC50 [3, 7]: 0.91 µM

COc1ccc(C(=O)Nc2cc3ccc(OC4CCN(C)CC4)c(C)c3oc2=O)cc1-c1cccc(OC(C)=O)c1 [Compound 32b, 2′-methoxy-5′-(8-methyl-7-(1-methylpiperidin-4-yloxy)-2-oxo-2H-chromen-3-ylcarbamoyl)biphenyl-3-yl acetate]
anti-proliferative activity (in words) [1]: increases activity almost three-fold
IC50 [2, 6]: 0.29 ± 0.01 µM
IC50 [3, 7]: 0.36 ± 0.06 µM

CC(C)=CCc1cc(C(=O)Nc2cc3ccc(OCCCN4CCN(C)CC4)c(C)c3oc2=O)ccc1O [Compound 62, 4-hydroxy-N-(8-methyl-7-(3-(4-methylpiperazin-1-yl)propoxy)-2-oxo-2H-chromen-3-yl)-3-(3-methylbut-2-en-1-yl)benzamide]
anti-proliferative activity (in words) [1]: maintain activity comparable to the N-methylpiperidine derivative

CC(C)=CCc1cc(C(=O)Nc2cc3ccc(OCCCN4CCOCC4)c(C)c3oc2=O)ccc1O [Compound 64, 4-hydroxy-N-(8-methyl-7-(3-morpholinopropoxy)-2-oxo-2H-chromen-3-yl)-3-(3-methylbut-2-en-1-yl)benzamide]
anti-proliferative activity (in words) [1]: inactive at the highest concentrations tested

CC(C)=CCc1cc(C(=O)Nc2cc3ccc(OCCCN4CCCCC4)c(C)c3oc2=O)ccc1O [Compound 65, 4-hydroxy-N-(8-methyl-2-oxo-7-(3-(piperidin-1-yl)propoxy)-2H-chromen-3-yl)-3-(3-methylbut-2-en-1-yl)benzamide]
anti-proliferative activity (in words) [1]: inactive at the highest concentrations tested

CC(C)=CCc1cc(C(=O)Nc2cc3ccc(OCCCN4CCCC4)c(C)c3oc2=O)ccc1O [Compound 66, 4-hydroxy-N-(8-methyl-2-oxo-7-(3-(pyrrolidin-1-yl)propoxy)-2H-chromen-3-yl)-3-(3-methylbut-2-en-1-yl)benzamide]
anti-proliferative activity (in words) [1]: restores activity

Cc1c(OC2CCN(C)CC2)ccc2cc(NC(=O)Nc3ccc([N+](=O)[O-])cc3)c(=O)oc12 [p-NO2, 1-(8-methyl-7-((1-methylpiperidin-4-yl)oxy)-2-oxo-2H-chromen-3-yl)-3-(4-nitrophenyl)urea]
IC50 (MDAMB231): 2100 nM
IC50 (DRO81-1): 11500 nM
IC50 (HMLE): > 25000 nM
IC50 [2, 8]: 0.58 µM
IC50 [3, 9]: 4.24 µM
IC50 (PC-3): 1060 nM
IC50 (HCT-116): 2830 nM
IC50 (MDA1986): 6600 nM
IC50 (JMAR): 7300 nM
IC50 (MRC5): > 25000 nM
IC50 (A-549): 950 nM

COc1ccc(NC(=O)Nc2cc3ccc(OC4CCN(C)CC4)c(C)c3oc2=O)cc1 [p-OCH3, 1-(4-methoxyphenyl)-3-(8-methyl-7-((1-methylpiperidin-4-yl)oxy)-2-oxo-2H-chromen-3-yl)urea]
IC50 (MDAMB231): 2400 nM
IC50 (DRO81-1): 29000 nM
IC50 (HMLE): 740 nM
IC50 [2, 8]: 0.86 µM
IC50 [3, 9]: 0.96 µM
IC50 (PC-3): 520 nM
IC50 (HCT-116): 250 nM
IC50 (MDA1986): 2600 nM
IC50 (JMAR): 8400 nM
IC50 (MRC5): 2700 nM
IC50 (A-549): 1090 nM

Cc1c(OC2CCN(C)CC2)ccc2cc(NC(=O)Nc3ccc(Oc4ccccc4)cc3)c(=O)oc12 [p-phenoxyl, 1-(8-methyl-7-((1-methylpiperidin-4-yl)oxy)-2-oxo-2H-chromen-3-yl)-3-(4-phenoxyphenyl)urea]
IC50 (MDAMB231): 2200 nM
IC50 (DRO81-1): 1800 nM
IC50 (HMLE): > 25000 nM
IC50 [2, 8]: 0.4 µM
IC50 [3, 9]: 0.7 µM
IC50 (PC-3): 150 nM
IC50 (HCT-116): 240 nM
IC50 (MDA1986): 6000 nM
IC50 (JMAR): 5300 nM
IC50 (MRC5): 11300 nM
IC50 (A-549): 180 nM

Cc1c(OC2CCN(C)CC2)ccc2cc(NC(=O)Nc3ccc(-c4ccccc4)cc3)c(=O)oc12 [p-phenyl, 1-([1,1′-biphenyl]-4-yl)-3-(8-methyl-7-((1-methylpiperidin-4-yl)oxy)-2-oxo-2H-chromen-3-yl)urea]
IC50 (MDAMB231): 370 nM
IC50 (DRO81-1): 270 nM
IC50 (HMLE): 3600 nM
IC50 [2, 8]: 0.36 µM
IC50 [3, 9]: 0.7 µM
IC50 (PC-3): 52 nM
IC50 (HCT-116): 150 nM
IC50 (MDA1986): 850 nM
IC50 (JMAR): 930 nM
IC50 (MRC5): 2000 nM
IC50 (A-549): 66 nM
